Assay [1] concerns C2C12 myoblasts. In words: C2C12 myoblast differentiation, fusion index by cytoimmunofluorescence. The format is cell-based, Mouse. The note with it: 5 days in differentiation medium. As to the method:
Mouse myoblasts of the C2C12 cell line (ATCC) were seeded at a plating density of 7000 cells/cm2 in 6-well plates. They were grown in DMEM high glucose (4.5g/l) supplemented with gentamycin (50 µg/mL), amphotericin (50 µg/mL), and fetal calf serum (10%). Terminal differentiation was induced at cell confluence by lowering the medium serum concentration (0.5%).
When indicated, FuFA-F2 was added to the culture medium at the indicated concentration. For the differentiation studies, FuFA-F2 was added at the confluence at the same time as the change in media condition. Three doses of FuFA-F2 were studied at a final concentration of 1, 10, or 50 µM. Human insulin was used at a concentration of 100 nM.
Cytoimmunofluorescence myoblast differentiation was assessed by observation of morphological changes and accumulation of muscle-specific markers. After methanol fixation and three washes with PBS-gelatin (0.2%), cells were labeled with an antibody raised against Troponin T (T6277, Sigma, diluted at 1:50) (Sigma-Aldrich, Saint-Quentin Fallavier, France). Nuclei were stained with Hoechst 33258 (1 µg/mL). To assess the extent of differentiation, the fusion index (percentage of nuclei incorporated into myotubes relative to the total number of nuclei) was calculated 120 h after adding the differentiation medium. Nuclei were counted on 10 images/dish using ImageJ software. […]

Assay [2] deals with myosin heavy chains. In words: Myosin heavy chain gene expression in quadriceps of supplemented C57Bl6 mice. The note with it: 20mg/kg oral gavage. The format is in vivo. As to the method:
Male C57Bl/6J wild-type mice were obtained from Janvier at 12 weeks of age and were randomly assigned to one of the two groups based on body weight. Mice were housed 2 per cage and maintained on a 12-hour light/dark cycle (lights on at 7:30 pm). Food and water were provided ad libitum. Enrichment (nesting cotton squares) was provided in each cage. Mice were treated once daily by oral gavage with vehicle (50% PEG-400, 0.5% Tween 80, and 49.5% distilled water) or FuFA-F2 (20 mg/kg). All animal experiments were performed according to European directives (86/609/CEE and 2010/63/CEE) and approved by the regional animal experimentation ethics committe: Région Languedoc-Roussillon (No36). Our institutional guidelines for the care and use of laboratory animals were observed. […]
The PCR overall efficiency (E) was calculated from the slopes of the standard curves according to the equation E = [10^(-1/slope)] - 1, and this value was higher than 95% for all assays. The relative abundance of each sample was then normalized according to the equation: relative quantity = 2^- […]Ct. All of the experiments were performed according to the minimum information for publication of quantitative real-time PCR experiment (MIQE) guidelines (Bustin et al., 2009, Clin Chem, Vol. 55(4) : 611-622; Schmittgen et al., 2008, Net Protoc, Vol. 3(6) : 1101-1108). […]

`CCCCCc1cc(C)c(CCCCCCCCC(=O)O)o1` [FuFA-F2]: the myoblast fusion index is listed as 61% in assay [1] (50 µM, 57% for control, p<0.05); “no significant effects” in assay [1] (1 and 10 µM (all doses except 50 µM)). Besides, in assay [2], the “MyHCIIa expression at the expense of MyHCIIb” value is given as “trend towards an increase”. Also, the “expression of the different myosin heavy chains” value in assay [2] (treated vs not treated) is on record as “did not indicate any significant difference”.
